Data reported in publication PMC9315041, “Conformationally Constrained Sialyl Analogues as New Potential Binders of h‐CD22” (Chembiochem, 2022).

Tests used:
h-CD22 (Siglec-2) [1] = molecular target: T1, h-CD22 (Siglec-2) (Homo sapiens, UniProt P20273); test: intrinsic tryptophan fluorescence titration; STD NMR and tr-NOESY; assay type: binding
T1 sequence (P20273 20-687 limits assumed): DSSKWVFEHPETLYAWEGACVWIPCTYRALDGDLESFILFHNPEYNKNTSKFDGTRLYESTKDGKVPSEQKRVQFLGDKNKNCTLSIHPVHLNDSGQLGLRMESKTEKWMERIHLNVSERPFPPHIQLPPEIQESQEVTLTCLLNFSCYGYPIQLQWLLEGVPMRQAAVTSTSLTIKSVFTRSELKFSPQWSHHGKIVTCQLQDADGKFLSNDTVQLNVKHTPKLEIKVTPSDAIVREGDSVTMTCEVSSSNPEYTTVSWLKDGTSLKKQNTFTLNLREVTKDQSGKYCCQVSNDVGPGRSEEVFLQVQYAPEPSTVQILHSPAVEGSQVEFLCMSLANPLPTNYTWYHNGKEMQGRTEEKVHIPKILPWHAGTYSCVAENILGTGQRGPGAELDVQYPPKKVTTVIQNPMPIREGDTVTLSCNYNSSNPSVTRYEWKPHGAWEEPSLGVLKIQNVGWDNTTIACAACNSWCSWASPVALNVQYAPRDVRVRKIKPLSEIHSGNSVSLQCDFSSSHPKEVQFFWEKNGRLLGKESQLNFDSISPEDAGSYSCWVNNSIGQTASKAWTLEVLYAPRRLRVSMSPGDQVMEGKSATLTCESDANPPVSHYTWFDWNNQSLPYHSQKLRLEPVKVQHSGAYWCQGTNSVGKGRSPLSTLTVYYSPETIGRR
Source text: intrinsic tryptophan fluorescence titration; STD NMR and tr-NOESY on h-CD22 (Siglec-2) | thus proving the complex formation.

h-CD22 (Siglec-2) [2] = molecular target: T1, h-CD22 (Siglec-2); test: SPR (CD22 immobilized on protein A chip); STD NMR; assay type: binding

Kd (h-CD22 (Siglec-2) [2])	Structure (SMILES)	Kd (h-CD22 (Siglec-2) [1])
–	CC(=O)N[C@H]1[C@H]([C@H](O)[C@H](O)CO)OC(OC[C@H]2O[C@@H]3OC4=C(S[C@@H]3[C@@H](O)[C@H]2O)C(=O)N[C@H](C(=O)O)C4)(C(=O)O)C[C@@H]1O (some centres unmarked) [compound 1, Sialyl-TnThr analogue]	2000 ± 100 nM
13.5 ± 2.6 µM	CC(=O)N[C@H]1[C@H]([C@H](O)[C@H](O)CNC(=O)c2ccc(-c3ccccc3)cc2)OC(OC[C@H]2O[C@@H]3OC4=C(S[C@@H]3[C@@H](O)[C@H]2O)C(=O)N[C@H](C(=O)O)C4)(C(=O)O)C[C@@H]1O (some centres unmarked) [compound 2, sialo-derivative 2]	–
